Measured values as given in patent US12612408B2, “Pyrazolone-fused pyrimidine compound, preparation method for same and applications thereof” (SHANGHAI PHARMACEUTICALS HOLDING CO., LTD., priority 2019, dated 2026).
Like-named read-outs stand apart in the source and are kept apart here. One block for each compound: values may come before it.

Legend:
WEE1 kinase = molecular target: T1, WEE1 kinase (Homo sapiens, UniProt P30291); experiment: Inhibitory effect of compound on WEE1 kinase in vitro (ELISA); assay type: biochemical; details: ATP concentration of Km
T1 construct: purchased CarnaBiosciences, Inc. 05-177
Experimental: The tested compounds were screened on WEE1 kinase with ATP concentration of Km by ELISA. Compounds were screened on WEE1 kinase to evaluate the kinase inhibitory activity of the tested compounds. In the detection process, the initial concentration of the tested compounds was all selected as 100 nM, and each compound was selected with 6 gradient dilution concentrations, the gradient dilution ratio was 4-fold, and two replicate wells were detected for each concentration, MK1775 was used as the standard control.
WEE1, purchased from CarnaBiosciences, Inc., Item No. 05-177; dimethyl sulfoxide, purchased from Sigma-Aldrich, Item No. D8418; ATP, purchased from Sigma-Aldrich, Item No. A7699; DTT solution, purchased from Sigma-Aldrich, Item No. 43816; protein tyrosine kinase (PTK) substrate (poly-Glu-Tyr), purchased from Sigma-Aldrich, Item No. P4476; P-Tyr (PY99), purchased from Santa Cruz, Item No. sc-7020; Anti-mouse IgG HRP-linked Antibody, purchased from Santa Cruz, Item No. 7076S; TMB liquid Substrate System, purchased from Sigma-Aldrich, Item No. T0440; Costar Stripwell Microplate No Lid 1×8 Flat Bottom, Certified High Binding, purchased from Sigma-Aldrich, Item No. 42592; 96-well compound plate, purchased from Thermo Scientific, Item No. 267245.
• 1. Coating substrate: 1) An appropriate volume of substrate storage solution protein tyrosine kinase (PTK) substrate (poly-Glu-Tyr) was taken, diluted 10 times with PBS, and the concentration was diluted from […]. The mixture was added to a high adsorption 96-well plate at 125 μL per well. The plate was placed in an incubator at 37° C. for overnight coating. 2) After 24 hours, the 96-well plate was taken out, the liquid in the 96-well plate was poured out, cleaned with washing buffer for 3 times, and the incubator at 37° C. was inverted and dried for 2 hours. • 2. Compound preparation and transfer: 1) compound dilution: 10 mM of the test compound storage solution was taken, the compound in 96-well compound plate was diluted with DMSO in multiple steps to obtain the initial concentration of 100× compound as the first concentration, and then DMSO was used for 4-fold gradient dilution, for a total of 6 concentrations; after that, 2 μL of the gradient dilution solution was added to 48 μL of 1× reaction buffer respectively to prepare 4× compound; 2) 4× compounds were transferred: 10 μL of 4× compounds from the 96-well compound plate configured in the previous step were transferred into the dried high adsorption 96-well plate; 10 μL of the following liquids were added to the compound-free control wells and ATP-control wells: 2 μL of DMSO was added to 48 μL of 1× reaction buffer. • 3. Enzyme reaction stage: 1) WEE1 kinase and ATP were prepared into 2× enzyme solution and 4×ATP solution respectively with 1× reaction buffer. In this screening, the final concentration of WEE1 kinase was: 0.15 ng/μL and the final concentration of ATP was: […]; 2) 20 μL of enzyme solution of 2 was added to the high adsorption 96-well plate; 3) 10 μL of 4×ATP solution was added to the high adsorption 96-well plate and 10 μL of 1× reaction buffer was added to the ATP-control group; 4) the plate was placed in HERAEUS Multifuge X1R centrifuge at 2000 rpm for 20 s and then placed at room temperature and reacted for 60 min. • 4. Reaction termination stage: 1) the reaction mixture in the plate was poured out, 200 μL of washing buffer was added to each well, and washed for 5 times; the primary antibody P-Tyr (PY99) (dilution ratio 1:2000) was added, 100 μL per well, at room temperature for 30 min. 2) The primary antibody in the plate was poured out, 200 μL of washing buffer was added to each well, and washed for 5 times; the second antibody Anti-mouse IgG HRP-linked Antibody (dilution ratio 1:2000) was added, 100 μL per well, at room temperature for 30 min.

[1] = Bioavailability test in vivo in mice (pharmacokinetics, iv and intragastric); set-up: species or system ICR mice; details: for Cmax / MRT / Tmax / clearance / half-life / Vd / bioavailability: ICR, mouse, plasma; for bioavailability: po 10 mg/kg vs iv 3 mg/kg, read-out: F (absolute bioavailability)
Experimental: 404.6 μL of DMSO was added to the compound powder of the present disclosure until the compound was completely dissolved, and 50 mg/mL mother liquor was prepared in a clarified state.
The compound of the present disclosure: 24 μL of mother liquor was accurately measured, diluted to 4 mL according to the ratio of 0.9% normal saline:PEG400=8:2, the preparation concentration was 0.3 mg/mL, the solution was in a clarified state, and it was used as intravenous administration solution. In addition, 80 μL mother liquor was accurately measured, and 0.5% CMC-Na was added to 8 mL to grind it into a uniform suspension with a concentration of 0.5 mg/mL, which was used as intragastric administration solution.
(§1) Intravenous group: 24 ICR mice, 20±2 g, were given the intravenous administration solution of the compound of the present disclosure by intravenous injection, with the volume of 10 mL/kg, with the dose of 3 mg/kg, the blood was taken from the fundus venous plexus of mice, 2, 5, 15, 30, 60, 90, 120, 240, 360, 480, 600 and 1440 minutes before and after administration.
as §1, with “Intragastric group:” for “Intravenous group:”, “the intragastric” for “the intravenous”, “by intragastric” for “by intravenous”, “of 20” for “of 10”, “of 10” for “of 3”, “mice,” for “mice, 2,”
Blood sample was centrifuged at 8000 rpm for 5 min, and the plasma was stored in a centrifuge tube at −20° C. for later use.
300 μL of acetonitrile containing internal standard (Propranolol, 25 ng/mL) was added to 50 μL of plasma samples to precipitate protein, vortexed for 10 min, 6000 g, 4° C., centrifuged for 10 min; the supernatant before intravenous injection for 1 hour was taken, diluted 10 times with acetonitrile containing internal standard, the rest supernatant was kept undiluted, centrifuged for 10 min again at 6000 g, 4° C., and the supernatant was taken and then injected into a 96-well plate.
Dose; peak concentration: Cmax; peak time: Tmax; area under the drug-time curve from AUClast 0 to time t; half-life: T1/2; mean retention time: MRT; clearance: Cl; apparent distribution volume: Vz; steady-state distributed volume: Vss; absolute bioavailability: F.
The pharmacokinetic parameters of the compound in mice after intravenous injection or intragastric administration were shown in Table 4 and Table 5 below.

[2] = iv, 3 mg/kg, iv, 3 mg/kg, read-out: Vss
[3] = iv, 3 mg/kg, iv, 3 mg/kg, read-out: Vz

T1 sequence (P30291 whole entry): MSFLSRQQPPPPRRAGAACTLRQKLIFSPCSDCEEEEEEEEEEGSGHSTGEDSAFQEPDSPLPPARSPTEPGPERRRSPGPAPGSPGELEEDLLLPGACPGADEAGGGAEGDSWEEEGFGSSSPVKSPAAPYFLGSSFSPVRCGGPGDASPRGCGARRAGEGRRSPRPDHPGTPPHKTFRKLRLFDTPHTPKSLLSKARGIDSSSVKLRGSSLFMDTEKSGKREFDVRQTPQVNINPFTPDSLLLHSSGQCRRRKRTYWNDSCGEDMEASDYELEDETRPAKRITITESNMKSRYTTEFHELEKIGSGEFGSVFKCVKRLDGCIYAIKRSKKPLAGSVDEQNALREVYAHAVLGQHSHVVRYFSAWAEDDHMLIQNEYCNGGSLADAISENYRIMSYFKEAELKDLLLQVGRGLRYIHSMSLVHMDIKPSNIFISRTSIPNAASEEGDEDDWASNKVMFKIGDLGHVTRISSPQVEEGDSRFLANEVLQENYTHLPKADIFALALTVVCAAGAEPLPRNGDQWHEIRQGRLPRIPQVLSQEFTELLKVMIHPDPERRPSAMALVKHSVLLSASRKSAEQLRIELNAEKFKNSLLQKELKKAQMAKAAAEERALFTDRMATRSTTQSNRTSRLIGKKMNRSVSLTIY

SMILES: C=CCn1c(=O)c2cnc(Nc3ccc(C4CCC(C(=O)N(C)C)CC4)cc3)nc2n1-c1cccc(C(C)(C)O)n1 (centres unmarked) [Compound I-6]
IC50 (WEE1 kinase): 6.76 nM

SMILES: C=CCn1c(=O)c2cnc(Nc3ccc(C4CCC(C(=O)N5CCC5)CC4)cc3)nc2n1-c1cccc(C(C)(C)O)n1 (centres unmarked) [Compound I-7]
IC50 (WEE1 kinase): 6.53 nM

SMILES: C=CCn1c(=O)c2cnc(Nc3ccc(C4CCC(C(=O)NC5CC5)CC4)cc3)nc2n1-c1cccc(C(C)(C)O)n1 (centres unmarked) [Compound I-17]
IC50 (WEE1 kinase): 4.05 nM

SMILES: C=CCn1c(=O)c2cnc(Nc3ccc(C4CCC(NS(C)(=O)=O)CC4)cc3)nc2n1-c1cccc(C(C)(C)O)n1 (centres unmarked) [Compound I-19, N-(4-(4-((2-allyl-1-(6-(2-hydroxypropan-2-yl)pyridin-2-yl)-3-oxo-2,3-dihydro-1H-pyrazolo[3,4-d]pyrimidin-6-yl)amino)phenyl)cyclohexyl)methanesulfonamide]
IC50 (WEE1 kinase): 3.89 nM

SMILES: C=CCn1c(=O)c2cnc(Nc3ccc(C4CCC(NC(=N)N)CC4)cc3)nc2n1-c1cccc(C(C)(C)O)n1 (centres unmarked) [Compound I-20]
IC50 (WEE1 kinase): 3.45 nM

SMILES: C=CCn1c(=O)c2cnc(Nc3ccc(C4CCC(=NOC)CC4)cc3)nc2n1-c1cccc(C(C)(C)O)n1 (centres unmarked) [Compound I-32]
IC50 (WEE1 kinase): 7.39 nM

SMILES: C=CCn1c(=O)c2cnc(Nc3ccc(C4CCC(NC)CC4)cc3)nc2n1-c1cccc(C2(O)COC2)n1 (centres unmarked) [Compound I-33]
IC50 (WEE1 kinase): 4.22 nM

SMILES: C=CCn1c(=O)c2cnc(Nc3ccc(C4CCC(C(=O)O)CC4)cc3)nc2n1-c1cccc(C2(O)COC2)n1 (centres unmarked) [Compound I-40]
IC50 (WEE1 kinase): 4.58 nM

These reach a lower IC50 (WEE1 kinase). Values come first.

IC50 (WEE1 kinase): 1.9 nM
Cmax ([1]; iv, 3 mg/kg): 701 ± 142 ng/mL
MRT ([1]; iv, 3 mg/kg): 1.75 ± 0.46 h
Tmax ([1]; iv, 3 mg/kg): 0.03 h
clearance ([1]; iv, 3 mg/kg): 129 mL/min/kg
half-life ([1]; iv, 3 mg/kg): 4.31 ± 1.51 h
Vd [1, 2]: 13.6 ± 3.95 L/kg
Vd [1, 3]: 48.5 ± 18.4 L/kg
bioavailability [1]: 42.6%
Cmax ([1]; po (intragastric), 10 mg/kg): 245 ± 220 ng/mL
MRT ([1]; po (intragastric), 10 mg/kg): 4.33 ± 9.02 h
Tmax ([1]; po (intragastric), 10 mg/kg): 2.5 ± 1.32 h
half-life ([1]; po (intragastric), 10 mg/kg): 3.1 ± 9.02 h
AUClast ([1]; iv, 3 mg/kg): 372.5 ± 24.38 (h) (ng/mL)
AUClast ([1]; po (intragastric), 10 mg/kg): 528.6 ± 331.1 (h) (ng/mL)
SMILES: C=CCn1c(=O)c2cnc(Nc3ccc(C4CCC(N(C)C)CC4)cc3)nc2n1-c1cccc(C(C)(C)O)n1 (single isomer, unassigned) [Compound I-1-1]

IC50 (WEE1 kinase): 1.52 nM
Cmax ([1]; iv, 3 mg/kg): 644 ± 132 ng/mL
MRT ([1]; iv, 3 mg/kg): 1.11 ± 0.08 h
Tmax ([1]; iv, 3 mg/kg): 0.03 h
clearance ([1]; iv, 3 mg/kg): 155 mL/min/kg
half-life ([1]; iv, 3 mg/kg): 1.22 ± 0.1 h
Vd [1, 2]: 10.3 ± 0.86 L/kg
Vd [1, 3]: 16.3 ± 2.48 L/kg
bioavailability [1]: 60.3%
Cmax ([1]; po (intragastric), 10 mg/kg): 58.1 ± 7.09 ng/mL
MRT ([1]; po (intragastric), 10 mg/kg): 3.47 ± 1.22 h
Tmax ([1]; po (intragastric), 10 mg/kg): 1.67 ± 0.29 h
half-life ([1]; po (intragastric), 10 mg/kg): 1.57 ± 0.39 h
AUClast ([1]; iv, 3 mg/kg): 317.5 ± 34.41 (h) (ng/mL)
AUClast ([1]; po (intragastric), 10 mg/kg): 637.9 ± 302.3 (h) (ng/mL)
SMILES: C=CCn1c(=O)c2cnc(Nc3ccc(C4CCC(N5CCC5)CC4)cc3)nc2n1-c1cccc(C(C)(C)O)n1 (centres unmarked) [Compound I-8]

IC50 (WEE1 kinase): 0.71 nM
SMILES: C=CCn1c(=O)c2cnc(Nc3ccc(C4CCC(C#N)CC4)cc3)nc2n1-c1cccc(C(C)(C)O)n1 (centres unmarked) [Compound I-23]

IC50 (WEE1 kinase): 2.05 nM
SMILES: C=CCn1c(=O)c2cnc(Nc3ccc(C4CC(N(C)C)C4)cc3)nc2n1-c1cccc(C(C)(C)O)n1 (centres unmarked) [Compound I-31, 2-allyl-6-((4-(3-(dimethylamino)cyclobutyl)phenyl)amino)-1-(6-(2-hydroxypropan-2-yl)pyridin-2-yl)-1,2-dihydro-3H-pyrazolo[3,4-d]pyrimidin-3-one]

IC50 (WEE1 kinase): 3.3 nM
SMILES: C=CCn1c(=O)c2cnc(Nc3ccc(C4CCC(N(C)C(=O)C5CC5)CC4)cc3)nc2n1-c1cccc(C2(O)COC2)n1 (centres unmarked) [Compound I-34]

IC50 (WEE1 kinase): 1.99 nM
SMILES: C=CCn1c(=O)c2cnc(Nc3ccc(C4CCC(N5CCOC5=O)CC4)cc3)nc2n1-c1cccc(C2(O)COC2)n1 (centres unmarked) [Compound I-37]

IC50 (WEE1 kinase): 1.68 nM
SMILES: C=CCn1c(=O)c2cnc(Nc3ccc(C4CCC(C#N)CC4)cc3)nc2n1-c1cccc(C2(O)COC2)n1 (centres unmarked) [Compound I-38]

IC50 (WEE1 kinase): 2.08 nM
SMILES: C=CCn1c(=O)c2cnc(Nc3ccc(C4CCC(C(=O)OCC)CC4)cc3)nc2n1-c1cccc(C2(O)COC2)n1 (centres unmarked) [Compound I-39]

IC50 (WEE1 kinase): 1.98 nM
Cmax ([1]; iv, 3 mg/kg): 646 ± 76.8 ng/mL
MRT ([1]; iv, 3 mg/kg): 0.86 ± 0.16 h
Tmax ([1]; iv, 3 mg/kg): 0.03 h
clearance ([1]; iv, 3 mg/kg): 188 mL/min/kg
half-life ([1]; iv, 3 mg/kg): 1.37 ± 0.33 h
Vd [1, 2]: 9.69 ± 0.96 L/kg
Vd [1, 3]: 22.2 ± 3.29 L/kg
bioavailability [1]: 9.19%
Cmax ([1]; po (intragastric), 10 mg/kg): 27.8 ± 4.76 ng/mL
MRT ([1]; po (intragastric), 10 mg/kg): 3.78 ± 1.56 h
Tmax ([1]; po (intragastric), 10 mg/kg): 1.67 ± 2.02 h
half-life ([1]; po (intragastric), 10 mg/kg): 2.51 ± 1.85 h
AUClast ([1]; iv, 3 mg/kg): 261.52 ± 26.93 (h) (ng/mL)
AUClast ([1]; po (intragastric), 10 mg/kg): 80.15 ± 9.62 (h) (ng/mL)
SMILES: C=CCn1c(=O)c2cnc(Nc3ccc4c(c3)CCC(N(C)C)C4)nc2n1-c1cccc(C(C)(C)O)n1 (centres unmarked) [Control 2, reference compound]
